Results reported in patent US12240822B2, “Naphthalene isoxazoline compound and application thereof” (SHANDONG C[…] SEA PHARMACEUTICAL TECHNOLOGY CO., LTD., priority 2023, dated 2025).
Values after ≈ are worked out from the molar mass of the structure shown. Values joined by “and” are separate entries in the source; they are usually repeats but may differ in a detail not shown here. Equal entries are not always repeated.

Experiments:
Thrips palmi Karny = assay: Indoor toxicity test on Thrips palmi Karny adults, liquid tube drug film method with leaf soaking; assay type: in vivo; set-up: LC90 value of the A4 as fraction of the LC90 value of the C4 / LC90 value of the A4 as fraction of the LC90 value of the B4: unit not given beside the values; details: for LC50 / LC90: Thrips palmi Karny adults, 48 h after administration
Method: Through indoor tests, a liquid tube drug film method improved by a filter paper drug film method was used for evaluating the indoor toxicity effects of three raw drugs on Thrips palmi Karny.
Thrips palmi Karny was raised indoors in the insectary of the Plant Protection Institute of Shandong Academy of Agricultural Sciences.
Culture was performed in an illumination incubator, and raising and observation were performed under the conditions that the temperature was 25.0±2.0° C., the relative humidity was 75±5% and the photoperiod (L/D) was 14 h/10 h.
The insect for tests is an adult of Thrips palmi Karny.
Three test medicaments were prepared into a mother solution with methanol and then diluted with a Tween-80 aqueous solution having a mass concentration of 0.1% in equal proportions, and the concentration was set in equal proportions. • B4 concentration: 0.5, 1, 2, 4, 8, 16 mg/L; • C4 concentration: 25, 12.5, 6.25, 3.125, 1.5625, 0.7813 mg/L; • A4 concentration: 0.1, 0.05, 0.025, 0.0125, 0.00625, 0.003125 mg/L. 3.2.2 Test Repetition
Each processing was repeated 4 times, and 30 insects for tests were used for each repetition.
According to NY/T 1154.8-2007, the liquid tube drug film method improved by the filter paper drug film method was used for processing insects for tests. Medicaments for tests were diluted into 6 concentrations, a 1.5 mL centrifugal tube was filled with each concentration of liquid medicine respectively and allowed to stand for 4 h, then the liquid medicine was poured out, and the centrifugal tube was placed on a test table and air-dried for later use. A fine needle tip was heated with an alcohol lamp, and a small hole with a diameter of about 2-3 mm was formed at the bottom of the air-dried centrifugal tube by heating. One repetition was performed for each tube, and 4 repetitions were performed for each concentration. Leaf soaking: A hole puncher was used for punching fresh cabbage leaves into circular leaves with a diameter of 0.5 cm, and the circular leaves were respectively soaked in each concentration of liquid medicine for 10 s with leaf soaking in clear water as a control. The processed leaves were placed on absorbent paper and air-dried and then clamped with small tweezers into the centrifugal tubes with corresponding liquid medicine concentrations, and one leaf was placed flatly in each tube. Indoor insects for tests: An interface of an insect sucker was sealed with gauze and sleeves an orifice of the processed centrifugal tube, and the hole formed by heating at the bottom of the centrifugal tube was aligned with the insects for tests to enable the insects for tests to be sucked into the centrifugal tube along the airflow. The insects for tests were processed after control, about 30 insects for tests were sucked for each repetition, then a tube cover was covered, and the hole formed by heating was sealed with a sealing film. After related information was marked, the number of live insects and the number of dead insects were recorded 48 h later.
Test results were investigated 48 h after drug post-processing.
The logarithm of the medicament concentration (mg/L) was taken as an independent variable X, the probability value of a corrected death rate was taken as a dependent variable Y, and the LC50 value, LC90 value, 95% confidence limit and R2 of a toxicity regression line were computed by DPS software.

Myzus persicae Sulzer = assay: Indoor toxicity test on Myzus persicae Sulzer wingless aphids, insect soaking and leaf soaking method; assay type: in vivo; set-up: LC50 value of the A4 as fraction of the LC50 value of the C4 / LC50 value of the A4 as fraction of the LC50 value of the B4: unit not given beside the values; details: for LC50: Myzus persicae Sulzer wingless aphids, 48 h after administration
Method: The aphid species was Myzus persicae Sulzer, which was a sensitive population raised indoors in the bioassay room of the Plant Protection Institute of Shandong Academy of Agricultural Sciences. The temperature range was 24-26° C., the humidity range was 60%-80%, and the illumination was L:D=16 h:8 h. Aphids used for tests were wingless aphids.
Test medicaments were prepared into a mother solution with methanol and then diluted with a Tween-80 aqueous solution having a mass concentration of 0.1% in equal proportions. According to effective components, the B4 was set to 6 concentration gradients of 0.5 mg/L, 1 mg/L, 2 mg/L, 4 mg/L, 8 mg/L, and 16 mg/L; the C4 was set to 6 concentration gradients of 0.5 mg/L, 1 mg/L, 2 mg/L, 4 mg/L, 8 mg/L, and 16 mg/L; and the A4 was set to 6 concentration gradients of 0.05 mg/L, 0.1 mg/L, 0.2 mg/L, 0.4 mg/L, 0.8 mg/L, and 1.6 mg/L. A methanol aqueous solution having a volume concentration of 4% was taken as a blank control.
Insects for tests were processed according to an insect soaking method (NY/T 1154.6-2006) and a leaf soaking method (NY/T 1154.14-2008). Each medicament for tests was diluted to the set 6 concentrations for later use. Absorbent paper was placed at the bottom of a disposable plastic cup, a layer of filter paper was laid on the absorbent paper, and 2 mL of distilled water was added to keep moisture for later use. Leaves with aphids were cut into small leaves, each leaf has about 20 wingless aphids, and the leaves with aphids were gently soaked in the liquid medicine with tweezers and then taken out after 10 s, and placed on the absorbent paper and air-dried. The air-dried leaves were placed in the prepared plastic cups which were then covered, and one leaf was placed in each plastic cup. One repetition was performed for each plastic cup, and 4 repetitions were performed for each concentration. The plastic cups were placed in an illumination incubator, and the number of live aphids and the number of dead aphids were recorded 48 h later.
DPS software was used for processing, and the median lethal concentration LC50 and 95% confidence limit of 3 test medicaments on aphids at 48 h were determined.
The logarithm of the medicament concentration (mg/L) was taken as an independent variable X, the probability value of a corrected death rate was taken as a dependent variable Y, and the LC50 value, 95% confidence limit and R2 of a toxicity regression line were computed by DPS software.

[1] = 0.05 mg/L, 48 h, single repetitions 1-4
[2] = 0.1 mg/L, 48 h, single repetitions 1-4
[3] = 4 mg/L, 48 h, single repetitions 1-4
[4] = 8 mg/L, 48 h, single repetitions 1-4
[5] = 16 mg/L, 48 h, single repetitions 1-4

Question: `CO/N=C/NC(=O)c1ccc(C2=NOC(c3cc(Cl)cc(C(F)(F)F)c3)(C(F)(F)F)C2)c2ccccc12` (stereo not drawn) [A4, 4-(5-(3-chloro-5-(trifluoromethyl)phenyl)-5-(trifluoromethyl)-4,5-dihydroisoxazol-3-yl)-N-((methoxylimino)methyl)-1-naphthyl formamide] was tested. Which Death rate (Thrips palmi Karny; 0.003125 mg/L, 48 h, Total/Average) did it give?
Answer: Its Death rate is 9.97%.

Question: And the Death rate (Thrips palmi Karny; 0.00625 mg/L, 48 h, Total/Average)?
Answer: Its Death rate is 37.74%.

Question: And the Death rate (Thrips palmi Karny; 0.00625 mg/L, 48 h, single repetitions 1-4)?
Answer: The Death rate was 35.00% and 29.41% and 42.11% and 44.44%.

Question: And the Death rate (Thrips palmi Karny; 0.0125 mg/L, 48 h, Total/Average)?
Answer: The Death rate was 61.14%.

Question: What about the Death rate (Thrips palmi Karny; 0.0125 mg/L, 48 h, single repetitions 1-4) of the same compound?
Answer: The Death rate was 55.00% and 60.00% and 69.57%.

Question: And the Death rate (Thrips palmi Karny; 0.025 mg/L, 48 h, Total/Average)?
Answer: Its Death rate is 80.47%.

Question: What about the Death rate (Thrips palmi Karny; 0.025 mg/L, 48 h, single repetitions 1-4) of the same compound?
Answer: Its Death rate is 85.19% and 73.91% and 80.95% and 81.82%.

Question: What about the Death rate (Thrips palmi Karny; 0.05 mg/L, 48 h, Total/Average) of the same compound?
Answer: Its Death rate is 91.01%.

Question: What about the Death rate (Thrips palmi Karny; [1]) of the same compound?
Answer: Its Death rate is 85.71% and 91.30% and 94.44% and 92.59%.

Question: What about the Death rate (Thrips palmi Karny; 0.1 mg/L, 48 h, Total/Average) of the same compound?
Answer: The Death rate was 100.00%.

Question: And the Death rate (Thrips palmi Karny; [2])?
Answer: The Death rate was 100.00%.

Question: And the LC50 (Thrips palmi Karny)?
Answer: The LC50 was 0.0123 µg/mL (≈ 0.0226 µM).

Question: What about the LC90 (Thrips palmi Karny) of the same compound?
Answer: Its LC90 is 0.0705 µg/mL (≈ 0.13 µM).

Question: And the “LC90 value of the A4 as fraction of the LC90 value of the B4” value (Thrips palmi Karny; Thrips palmi Karny, 48 h)?
Answer: Its value is 2/1000.

Question: And the “LC90 value of the A4 as fraction of the LC90 value of the C4” value (Thrips palmi Karny; Thrips palmi Karny, 48 h)?
Answer: The value was 4/1000.

Question: What about the Death rate (Myzus persicae Sulzer; 0.05 mg/L, 48 h, Total) of the same compound?
Answer: Its Death rate is 15.94%.

Question: And the Death rate (Myzus persicae Sulzer; [1])?
Answer: The Death rate was 15.00% and 17.24% and 16.13% and 15.38%.

Question: What about the Death rate (Myzus persicae Sulzer; 0.1 mg/L, 48 h, Total) of the same compound?
Answer: The Death rate was 24.96%.

Question: And the Death rate (Myzus persicae Sulzer; [2])?
Answer: Its Death rate is 23.53% and 22.73% and 25.00% and 28.57%.

Question: What about the Death rate (Myzus persicae Sulzer; 0.2 mg/L, 48 h, Total) of the same compound?
Answer: Its Death rate is 33.73%.

Question: What about the Death rate (Myzus persicae Sulzer; 0.2 mg/L, 48 h, single repetitions 1-4) of the same compound?
Answer: Its Death rate is 33.33% and 35.71% and 34.29% and 31.58%.

Question: And the Death rate (Myzus persicae Sulzer; 0.4 mg/L, 48 h, Total)?
Answer: Its Death rate is 40.78%.

Question: And the Death rate (Myzus persicae Sulzer; 0.4 mg/L, 48 h, single repetitions 1-4)?
Answer: Its Death rate is 50.00% and 43.48% and 37.50% and 32.14%.

Question: What about the Death rate (Myzus persicae Sulzer; 0.8 mg/L, 48 h, Total) of the same compound?
Answer: The Death rate was 63.22%.

Question: And the Death rate (Myzus persicae Sulzer; 0.8 mg/L, 48 h, single repetitions 1-4)?
Answer: The Death rate was 61.29% and 67.74% and 60.53% and 63.33%.

Question: And the Death rate (Myzus persicae Sulzer; 1.6 mg/L, 48 h, Total)?
Answer: Its Death rate is 84.47%.

Question: And the Death rate (Myzus persicae Sulzer; 1.6 mg/L, 48 h, single repetitions 1-4)?
Answer: Its Death rate is 87.10% and 81.25% and 86.21% and 83.33%.

Question: What about the LC50 (Myzus persicae Sulzer) of the same compound?
Answer: Its LC50 is 0.439 µg/mL (≈ 0.807 µM).

Question: What about the “LC50 value of the A4 as fraction of the LC50 value of the B4” value (Myzus persicae Sulzer; Myzus persicae Sulzer, 48 h) of the same compound?
Answer: The value was 14/100.

Question: And the “LC50 value of the A4 as fraction of the LC50 value of the C4” value (Myzus persicae Sulzer; Myzus persicae Sulzer, 48 h)?
Answer: The value was 40/100.

Question: What does the source list for `CO/N=C/NC(=O)c1ccc(C2=NOC(c3cc(Cl)cc(Cl)c3)(C(F)(F)F)C2)c2ccccc12` (stereo not drawn) [B4, 4-(5-(3,5-dichlorophenyl)-5-(trifluoromethyl)-4,5-dihydroisoxazol-3-yl)-N-((methoxylimino)methyl)-1-naphthyl formamide]?
Answer: Death rate (Thrips palmi Karny; 0.5 mg/L, 48 h, Total/Average): 18.31%; Death rate (Thrips palmi Karny; 1 mg/L, 48 h, Total/Average): 30.20%; Death rate (Thrips palmi Karny; 2 mg/L, 48 h, Total/Average): 33.85%; Death rate (Thrips palmi Karny; 2 mg/L, 48 h, single repetitions 1-4): 30.77% and 36.84% and 27.78% and 40.00%; Death rate (Thrips palmi Karny; 4 mg/L, 48 h, Total/Average): 47.56%; Death rate (Thrips palmi Karny; [3]): 52.00% and 41.38% and 54.55% and 42.31%; Death rate (Thrips palmi Karny; 8 mg/L, 48 h, Total/Average): 67.00%; Death rate (Thrips palmi Karny; [4]): 79.17% and 68.00% and 58.33% and 62.50%; Death rate (Thrips palmi Karny; 16 mg/L, 48 h, Total/Average): 98.68%; Death rate (Thrips palmi Karny; [5]): 100.00% and 94.74%; LC50 (Thrips palmi Karny): 3.33 µg/mL (≈ 6.53 µM); LC90 (Thrips palmi Karny): 33.9739 µg/mL (≈ 66.6 µM); Death rate (Myzus persicae Sulzer; 0.5 mg/L, 48 h, Total): 12.01%; Death rate (Myzus persicae Sulzer; 0.5 mg/L, 48 h, single repetitions 1-4): 10.00% and 12.50% and 13.04%; Death rate (Myzus persicae Sulzer; 1 mg/L, 48 h, Total): 20.73%; Death rate (Myzus persicae Sulzer; 1 mg/L, 48 h, single repetitions 1-4): 15.15% and 22.22% and 21.74% and 23.81%; Death rate (Myzus persicae Sulzer; 2 mg/L, 48 h, Total): 45.08%; Death rate (Myzus persicae Sulzer; 4 mg/L, 48 h, Total): 61.17%; Death rate (Myzus persicae Sulzer; [3]): 41.94% and 58.33% and 72.00% and 72.41%; Death rate (Myzus persicae Sulzer; 8 mg/L, 48 h, Total): 78.33%; Death rate (Myzus persicae Sulzer; [4]): 80.95% and 66.67% and 85.71% and 80.00%; Death rate (Myzus persicae Sulzer; 16 mg/L, 48 h, Total): 84.61%; Death rate (Myzus persicae Sulzer; [5]): 88.89% and 86.96% and 81.82% and 80.77%; LC50 (Myzus persicae Sulzer): 3.13 µg/mL (≈ 6.14 µM)
